From the NIST ThermoML archive (doi:10.1016/j.jct.2017.02.014)

Legend:
[1] = refractive index (Na D-line) (dimensionless); details: 298.15 K; 101.33 kPa; Liquid; Standard Abbe refractometry
[2] = refractive index (other wavelength) (dimensionless); details: 100 kPa, Liquid, Wavelength=632.8 nm, minimum deviation angle method
[3] = refractive index (other wavelength) (dimensionless); xn = mol fraction of the nth substance listed; details: 100 kPa, Liquid, Wavelength=632.8 nm, minimum deviation angle method, x2 = 0

CCCC[n+]1ccccc1.F[B-](F)(F)F [1-butylpyridinium tetrafluoroborate]
Details | refractive index
[1] | 1.4459

[2]
Details | refractive index
281.73 K | 1.4481
282.78 K | 1.4478
284.14 K | 1.4475
285.74 K | 1.4471
286.94 K | 1.4468
288.24 K | 1.4464
289.38 K | 1.4461
290.37 K | 1.4458
292.15 K | 1.4454
293.41 K | 1.4451
295 K | 1.4446
296.89 K | 1.444

CCO [ethanol]
Details | refractive index
[1] | 1.3596

[2]
Details | refractive index
282.04 K | 1.3645
283.11 K | 1.364
284.04 K | 1.3637
285.65 K | 1.363
286.62 K | 1.3626
288.17 K | 1.362
289.33 K | 1.3615
290.8 K | 1.3609
291.84 K | 1.3604
292.94 K | 1.36
293.77 K | 1.3596
295.49 K | 1.3589
296.51 K | 1.3585
297.44 K | 1.3581
298.14 K | 1.3578

CCO [ethanol] + CCCC[n+]1ccccc1.F[B-](F)(F)F
[3]
Details | refractive index
282.04 K | 1.3645
283.11 K | 1.364
284.04 K | 1.3637
285.65 K | 1.363
286.62 K | 1.3626
288.17 K | 1.362
289.33 K | 1.3615
290.8 K | 1.3609
291.84 K | 1.3604
292.94 K | 1.36
293.77 K | 1.3596
295.49 K | 1.3589
296.51 K | 1.3585
297.44 K | 1.3581
298.14 K | 1.3578
